SMILES strings stand for the structures. Structures can show the parent of a compound that is named as a salt. Where two headings read alike, the source gives them in different places.

The values below come from patent publication US12006301B1, “And synthesis of dual 5-HT1A and 5-HT7 receptor ligands” (Florida A&M University, priority 2021, dated 2024).

The target in series [1] is serotonin transporter (SERT) (Homo sapiens, UniProt P31645). As to the kind of experiment: NIMH-PDSP radioligand binding affinity, SERT. Conditions: read-out: SERT binding, 50% threshold inhibition (MT).
Method: Binding affinities reported in Tables 1-3 were conducted by the National Institute of Mental Health Psychoactive Drug Screening Program (NIMH-PDSP).
Another series deals with T1, 5-HT2CR (Homo sapiens, UniProt P28335).
T1 sequence (P28335 33-458): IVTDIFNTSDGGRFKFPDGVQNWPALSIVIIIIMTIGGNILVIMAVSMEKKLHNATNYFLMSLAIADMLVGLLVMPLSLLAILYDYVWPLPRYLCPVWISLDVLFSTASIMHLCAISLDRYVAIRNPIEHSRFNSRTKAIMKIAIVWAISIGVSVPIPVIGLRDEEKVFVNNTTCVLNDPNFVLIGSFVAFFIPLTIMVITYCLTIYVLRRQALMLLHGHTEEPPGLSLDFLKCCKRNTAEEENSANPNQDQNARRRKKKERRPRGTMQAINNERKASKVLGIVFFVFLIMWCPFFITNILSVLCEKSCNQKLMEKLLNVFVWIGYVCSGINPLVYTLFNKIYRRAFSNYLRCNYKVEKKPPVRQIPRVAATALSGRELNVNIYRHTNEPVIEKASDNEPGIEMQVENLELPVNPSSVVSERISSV
In words: NIMH-PDSP radioligand binding affinity, 5-HT2C. Conditions: for inhibition at 10 µM: read-out: 5-HT2C binding, 50% threshold inhibition (MT).

Another series deals with D2R (Homo sapiens, UniProt P14416). As to the kind of experiment: NIMH-PDSP radioligand binding affinity, D2. Conditions: for inhibition at 10 µM: read-out: D2 binding, 50% threshold inhibition (MT).
For series [2] the following is noted: animal models, rats, cited from earlier work.
The conditions of series [3]: animal studies, cited from earlier work.
Another series concerns the target T2, D4R (Homo sapiens, UniProt P21917).
T2 sequence (P21917 1-419): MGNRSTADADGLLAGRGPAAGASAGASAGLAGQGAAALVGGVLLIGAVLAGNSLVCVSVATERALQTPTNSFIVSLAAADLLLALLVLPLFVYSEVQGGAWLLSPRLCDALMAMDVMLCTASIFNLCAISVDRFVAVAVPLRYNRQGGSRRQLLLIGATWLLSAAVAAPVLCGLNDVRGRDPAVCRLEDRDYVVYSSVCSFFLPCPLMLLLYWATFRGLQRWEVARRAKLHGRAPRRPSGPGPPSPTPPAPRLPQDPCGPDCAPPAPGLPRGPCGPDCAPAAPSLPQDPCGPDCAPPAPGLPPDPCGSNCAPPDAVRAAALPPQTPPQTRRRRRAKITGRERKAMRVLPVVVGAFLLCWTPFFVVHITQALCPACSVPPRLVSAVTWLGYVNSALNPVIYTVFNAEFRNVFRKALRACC
In words: NIMH-PDSP radioligand binding affinity, D4. Conditions: read-out: D4 binding, 50% threshold inhibition (MT).

Another series addresses T3, 5-HT7AR (Homo sapiens, UniProt P34969).
T3 construct: expressed in transfected cells; host or cells: Human embryonic kidney (HEK) cells, transient transfection with PEI
As to the kind of experiment: HEK-5-HT7A/cAMP adenylate cyclase functional assay, agonist effects. Type of series: cell-based.

Another series addresses D3R (Homo sapiens, UniProt P35462). In words: NIMH-PDSP radioligand binding affinity, D3.

Chain of serotonin transporter (SERT) (P31645 whole entry, species assumed): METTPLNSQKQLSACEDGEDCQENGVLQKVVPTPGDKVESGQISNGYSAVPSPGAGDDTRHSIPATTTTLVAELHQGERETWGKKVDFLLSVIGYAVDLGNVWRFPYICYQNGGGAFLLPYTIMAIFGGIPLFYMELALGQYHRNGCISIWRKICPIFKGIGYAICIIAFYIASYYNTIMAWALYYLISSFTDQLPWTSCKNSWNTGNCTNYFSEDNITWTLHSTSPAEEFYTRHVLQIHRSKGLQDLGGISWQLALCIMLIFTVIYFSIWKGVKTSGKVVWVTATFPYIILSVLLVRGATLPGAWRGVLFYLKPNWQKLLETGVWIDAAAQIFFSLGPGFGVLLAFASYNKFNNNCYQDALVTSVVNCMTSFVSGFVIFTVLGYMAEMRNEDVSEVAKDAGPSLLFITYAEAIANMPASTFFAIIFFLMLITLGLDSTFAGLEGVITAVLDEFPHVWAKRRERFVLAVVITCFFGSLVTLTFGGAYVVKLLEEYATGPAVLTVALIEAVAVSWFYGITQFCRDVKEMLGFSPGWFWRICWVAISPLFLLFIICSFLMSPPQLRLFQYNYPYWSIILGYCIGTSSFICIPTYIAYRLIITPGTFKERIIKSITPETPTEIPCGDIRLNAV
Chain of D2R (P14416 whole entry): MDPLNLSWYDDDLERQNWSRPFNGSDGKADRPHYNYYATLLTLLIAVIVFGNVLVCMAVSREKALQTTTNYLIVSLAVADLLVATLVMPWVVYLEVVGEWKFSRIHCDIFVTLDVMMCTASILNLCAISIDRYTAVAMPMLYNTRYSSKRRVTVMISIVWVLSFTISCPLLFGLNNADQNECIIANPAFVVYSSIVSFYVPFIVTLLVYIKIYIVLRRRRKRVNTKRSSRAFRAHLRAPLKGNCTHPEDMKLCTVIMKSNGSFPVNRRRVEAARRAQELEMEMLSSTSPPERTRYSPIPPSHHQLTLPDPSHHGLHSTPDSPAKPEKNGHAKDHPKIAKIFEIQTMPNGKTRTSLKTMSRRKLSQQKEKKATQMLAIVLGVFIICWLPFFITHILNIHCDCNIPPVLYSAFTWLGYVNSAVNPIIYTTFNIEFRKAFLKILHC
Chain of D3R (P35462 whole entry): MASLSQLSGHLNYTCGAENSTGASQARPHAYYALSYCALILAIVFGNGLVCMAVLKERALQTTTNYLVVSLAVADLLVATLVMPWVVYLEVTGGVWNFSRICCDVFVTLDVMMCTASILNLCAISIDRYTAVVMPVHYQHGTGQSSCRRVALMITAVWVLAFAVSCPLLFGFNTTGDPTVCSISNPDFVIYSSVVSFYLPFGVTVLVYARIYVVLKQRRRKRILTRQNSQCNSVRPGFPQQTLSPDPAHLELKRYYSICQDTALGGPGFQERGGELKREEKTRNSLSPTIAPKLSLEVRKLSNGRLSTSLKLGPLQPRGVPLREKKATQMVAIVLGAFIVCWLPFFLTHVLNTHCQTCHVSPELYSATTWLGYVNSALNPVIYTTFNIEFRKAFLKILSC
T3 sequence (P34969 1-445 isoform P34969-2): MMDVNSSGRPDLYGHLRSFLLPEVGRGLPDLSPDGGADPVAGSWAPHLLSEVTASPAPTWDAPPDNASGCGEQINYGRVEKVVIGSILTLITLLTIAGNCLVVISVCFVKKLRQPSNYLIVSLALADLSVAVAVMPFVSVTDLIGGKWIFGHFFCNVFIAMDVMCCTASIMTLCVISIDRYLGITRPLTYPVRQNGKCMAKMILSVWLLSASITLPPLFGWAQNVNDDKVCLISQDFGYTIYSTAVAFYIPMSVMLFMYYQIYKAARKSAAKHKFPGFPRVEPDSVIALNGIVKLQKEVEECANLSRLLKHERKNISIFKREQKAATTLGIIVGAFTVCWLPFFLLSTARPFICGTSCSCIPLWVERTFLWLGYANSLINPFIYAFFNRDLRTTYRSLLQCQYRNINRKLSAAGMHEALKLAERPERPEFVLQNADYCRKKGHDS

As usually defined, the melting point is the temperature, or range, at which the solid turns liquid. On to `OC1c2ccc(F)cc2CC1CCN1CCN(c2ccccn2)CC1` (centres unmarked) (as salt: hydroiodid) [Compound 14, 5-Fluoro-2-[2-(4-pyridin-2-yl-piperazin-1-yl)-ethyl]-indan-1-ol], for which the melting point was 174 to 175 °C.
A word on the inhibition: it is the relative decrease from the control value, in per cent. In the case of `Nc1ccc(CCCCN2CCN(c3ccccn3)CC2)cc1` [Compound 6, 4-(4-(4-(pyridin-2-yl)piperazin-1-yl)butyl)aniline], the inhibition at 10 µM (in [1]; on 5-HT2CR) was below 50% each time.
`O=C1c2ccc(Cl)cc2CC1CCCCN1CCN(c2ccccn2)CC1` (centres unmarked) (as salt: HCl) [Compound 20, 5-chloro-2-(4-(4-(pyridin-2-yl)piperazin-1-yl)butyl)-2,3-dihydro-1H-inden-1-one] came in with a melting point of 233 to 234 °C.
Take `O=C1CCc2cc(OCCCN3CCN(c4ccccn4)CC3)ccc21` [Compound 11, 5-(3-(4-(pyridin-2-yl)piperazin-1-yl)propoxy)-2,3-dihydro-1H-inden-1-one]: the melting point is 103 to 104 °C. Besides, the inhibition at 10 µM in [1] was below 50%. On D2R, the inhibition at 10 µM is below 50%.
Take `Fc1ccc(CCCCN2CCN(c3ccccn3)CC2)cc1` [Compound 2, 1-(4-(4-fluorophenyl)butyl)-4-(pyridin-2-yl)piperazine]: the entries for the “catalepsy / motoric side effects (in words)” value in [2], in series [2] (listed as SYA 16263) and in [2] (listed as SYA16263) were “low propensity to cause catalepsy”, “low propensity to cause motoric side effects” and “absence of catalepsy”, respectively. Besides, the “antipsychotic-like activity (in words)” value in series [3] (listed as SYA 16263) is recorded as “moderate antipsychotic-like activity”; in series [3] (listed as SYA16263) it was “antipsychotic-like properties”.
On to `O=C1CCc2cc(C(=O)CCCN3CCN(c4ccccn4)CC3)ccc2N1` [Compound 7, 6-(4-(4-(pyridin-2-yl)piperazin-1-yl)butanoyl)-3,4-dihydroquinolin-2(1H)-one], for which the melting point lay in the range of 192 to 193 °C. For the same molecule, the inhibition at 10 µM in [1] was below 50%. Moreover, the inhibition at 10 µM at 5-HT2CR is below 50%.
As for `O=C1c2cc(Cl)c(Cl)cc2CC1CCN1CCN(c2ccccn2)CC1` (centres unmarked) [Compound 18, 5,6-Dichloro-2-(2-(4-(pyridin-2-yl)piperazin-1-yl)ethyl)-2,3-dihydro-1H-inden-1-one], in series [1], the inhibition at 10 µM was below 50%.
Take `Clc1ccc2c(c1)CC(CCN1CCN(c3ccccn3)CC1)C2` (centres unmarked) [Compound 16, 1-(2-(5-chloro-2,3-dihydro-1H-inden-2-yl)ethyl)-4-(pyridin-2-yl)piperazine]: the inhibition at 10 µM in [1] was below 50%.
`CC(=O)Nc1ccc(C(=O)CCCN2CCN(c3ccccn3)CC2)cc1` (as salt: oxalate) [Compound 3, N-(4-(4-(4-(pyridin-2-yl)piperazin-1-yl)butanoyl)phenyl) acetamide oxalate]: the melting point is 140 to 142 °C.
Consider `O=C1c2cc(Cl)ccc2CC1CCN1CCN(c2ccccn2)CC1` (centres unmarked) [Compound 17, 6-chloro-2-(2-(4-(pyridin-2-yl)piperazin-1-yl)ethyl)-2,3-dihydro-1H-inden-1-one], for which the inhibition at 10 µM in series [1] was below 50%.
The same measure, in the same setting: to `CC(=O)Nc1ccc(CCCCN2CCN(c3ccccn3)CC2)cc1` [Compound 4, N-(4-(4-(4-(pyridin-2-yl)piperazin-1-yl)butyl)phenyl)acetamide] belongs below 50%.
`O=C1CCc2cc(OCCCN3CCCN(c4ccccn4)CC3)ccc2N1` [Compound 10, 6-(3-(4-(pyridin-2-yl)-1,4-diazepan-1-yl)propoxy)-3,4-dihydroquinolin-2(1H)-one oxalate]: the inhibition at 10 µM on D4R is below 50%.
With `Clc1ccc2c(c1)CC(CCN1CCN(c3ccccn3)CC1)C2` (centres unmarked) (as salt: HCl) [Compound 16, 1-(2-(5-chloro-2,3-dihydro-1H-inden-2-yl)ethyl)-4-(pyridin-2-yl)piperazine], the melting point fell in the range of 267 to 270 °C.
Regarding `Nc1ccc(C(=O)CCCN2CCN(c3ccccn3)CC2)cc1` [Compound 5, 1-(4-aminophenyl)-4-(4-(pyridin-2-yl)piperazin-1-yl)butan-1-one], the melting point is 203 to 204 °C. Also, in [1], the inhibition at 10 µM was below 50%.
`NCCc1c[nH]c2ccc(O)cc12` [Serotonin]: the “agonist activity at 5-HT7AR (in words)” value at 5-HT7AR is “showed agonist properties”.
For the molecule `OC1c2ccc(F)cc2CC1CCN1CCN(c2ccccn2)CC1` (centres unmarked) [Compound 14, 5-Fluoro-2-[2-(4-pyridin-2-yl-piperazin-1-yl)-ethyl]-indan-1-ol], at 5-HT2CR, the inhibition at 10 µM was below 50%.
Regarding `O=C1c2ccc(Cl)cc2CC1CCCN1CCN(c2ccccn2)CC1` (centres unmarked) [drawing 43], the inhibition at 10 µM in series [1] is below 50%.
Molecule `O=C(CCCN1CCN(c2ccccn2)CC1)c1ccc2c(c1)CCC2` [Compound 12, 1-(2,3-Dihydro-1H-inden-5-yl)-4-(4-(pyridin-2-yl)piperazin-1-yl)butan-1-one] registered a melting point of 74 to 75 °C. In series [1], the inhibition at 10 µM is below 50%.
For `CC(=O)Nc1ccc(C(=O)CCCN2CCN(c3ccccn3)CC2)cc1` [Compound 3, N-(4-(4-(4-(pyridin-2-yl)piperazin-1-yl)butanoyl)phenyl) acetamide oxalate], the inhibition at 10 µM in series [1] is below 50%.
Consider `O=C1CCc2cc(OCCCN3CCCN(c4ccccn4)CC3)ccc2N1` (as salt: oxalate) [Compound 10, 6-(3-(4-(pyridin-2-yl)-1,4-diazepan-1-yl)propoxy)-3,4-dihydroquinolin-2(1H)-one oxalate], for which the melting point is 190 to 192 °C.
Still for that read-out and setting: to `O=C1CCc2cc(CCCCN3CCN(c4ccccn4)CC3)ccc2N1` [Compound 8, 6-(4-(4-(pyridin-2-yl)piperazin-1-yl)butyl)-3,4-dihydroquinolin-2(1H)-one] belongs 144 to 145 °C.
Take `O=C1c2ccc(F)cc2CC1CCN1CCN(c2ccccn2)CC1` (centres unmarked) [Compound 13, 5-Fluoro-2-(2-(4-(pyridin-2-yl)piperazin-1-yl)ethyl)-2,3-dihydro-1H-inden-1-one]: in [1], the inhibition at 10 µM is below 50%. Further, on 5-HT2CR (10 µM), the “5-HT2C binding, 50% threshold inhibition (MT)” value is “MT (key: MT = missed 50% threshold inhibition at 10 μM concentration)”. Besides, at D2R, the “binding affinity at D2R (in words)” value is listed as “complete loss of binding affinity” and the inhibition at 10 µM is below 50%.
For the molecule `O=C1c2ccc(Cl)cc2CC1CCCN1CCN(c2ccccn2)CC1` (centres unmarked) [Compound 19, 5-chloro-2-(3-(4-(pyridin-2-yl)piperazin-1-yl)propyl)-2,3-dihydro-1H-inden-1-one], the inhibition at 10 µM on D2R is below 50%.
`O=C1CCc2cc(OCCCN3CCN(c4ccccn4)CC3)ccc2N1` [Compound 9, 6-(3-(4-(pyridin-2-yl)piperazin-1-yl)propoxy)-3,4-dihydroquinolin-2(1H)-one] returned a melting point of 154 to 155 °C.
As to `O=C1c2ccc(Cl)cc2CC1CCN1CCN(c2ccccn2)CC1` (centres unmarked) [Compound 15, 5-chloro-2-(2-(4-(pyridin-2-yl)piperazin-1-yl)ethyl)-2,3-dihydro-1H-inden-1-one], the melting point was in the range of 132 to 135 °C. Further, the inhibition at 10 µM in series [1] is below 50%. On D2R, the “binding affinity at D2R (in words)” value is listed as “lost” and the inhibition at 10 µM was below 50%. For the same molecule, the “binding affinity at D3R (in words)” value at D3R was “lost”. For the same molecule, at D3R (read-out: D3 binding, 50% threshold inhibition (MT)), the inhibition at 10 µM is below 50%.
